Data: ChEMBL document CHEMBL5257101, “Synthesis and evaluation of sulfonamide derivatives targeting EGFR790M/L858R mutations and ALK rearrangement as anticancer agents” (Bioorg Med Chem, 2023)
Activity calls are given as the source filed them. The rule behind the calls is not given here.

What was measured:
[1] = test system: NCI-H1975; assay: Antiproliferative activity against human NCI-H1975 cells expressing EGFR T790M/ L858R double mutant assessed as inhibition of cell growth measured after 48 to 72 hrs by MTT assay; assay type: functional, cell-based
[2] = test system: NCI-H2228; assay: Antiproliferative activity against human NCI-H2228 cells expressing ALK assessed as inhibition of cell growth measured after 48 to 72 hrs by MTT assay; assay type: functional, cell-based
[3] = test system: A549; assay: Antiproliferative activity against human A549 cells expressing wild type EGFR assessed as inhibition of cell growth measured after 48 to 72 hrs by MTT assay; assay type: functional, cell-based
[4] = test system: PC-9; assay: Antiproliferative activity against human PC-9 cells expressing EGFR Del19 mutant assessed as inhibition of cell growth measured after 48 to 72 hrs by MTT assay; assay type: functional, cell-based
[5] = Cytotoxicity against human EA.hy 926 cells assessed as inhibition of cell growth measured after 48 to 72 hrs by MTT assay; assay type: toxicity, cell-based
[6] = Cytotoxicity against human HK-2 cells assessed as inhibition of cell growth measured after 48 to 72 hrs by MTT assay; assay type: toxicity, cell-based
[7] = test system: HK-2; assay: Effect on cell morphology in human HK-2 cells at 1 uM incubated for 24 hrs by inverted microscopic analysis; assay type: functional, cell-based
[8] = Selectivity ratio, ratio of IC50 for human NCI-H2228 cells expressing ALK to IC50 for human EA.hy 926 cells by MTT assay
[9] = Selectivity ratio, ratio of IC50 for human NCI-H2228 cells expressing ALK to IC50 for human HK-2 cells by MTT assay
[10] = molecular target: ALK tyrosine kinase receptor (Homo sapiens, UniProt Q9UM73); assay: Inhibition of ALK (unknown origin) pre-incubated for 10 mins followed by substrate addition measured after 60 mins in presence of ATP by mobility shifting assay
[11] = Selectivity ratio, ratio of IC50 for human A549 cells expressing wild type EGFR to IC50 for human NCI-H1975 cells expressing EGFR T790M/ L858R double mutant by MTT assay
[12] = molecular target: Epidermal growth factor receptor (Homo sapiens, UniProt P00533, L858R/T790M); assay: Inhibition of EGFR L858R/T790M double mutant (unknown origin) pre-incubated for 10 mins followed by substrate addition measured after 60 mins in presence of ATP by mobility shifting assay
[13] = molecular target: Epidermal growth factor receptor (Homo sapiens, UniProt P00533); assay: Inhibition of wild type EGFR (unknown origin) pre-incubated for 10 mins followed by substrate addition measured after 60 mins in presence of ATP by mobility shifting assay
[14] = molecular target: Epidermal growth factor receptor (Homo sapiens, UniProt P00533, EX19DEL); assay: Inhibition of EGFR Del19 mutant (unknown origin) pre-incubated for 10 mins followed by substrate addition measured after 60 mins in presence of ATP by mobility shifting assay
[15] = species on record: Homo sapiens; assay: Selectivity ratio, ratio of IC50 for wild type EGFR (unknown origin) to IC50 for EGFR L858R/T790M double mutant (unknown origin) by mobility shifting assay
[16] = species on record: Homo sapiens; assay: Selectivity ratio, ratio of IC50 for wild type EGFR (unknown origin) to IC50 for EGFR Del19 mutant (unknown origin) by mobility shifting assay
[17] = Selectivity ratio, ratio of IC50 for human A549 cells expressing wild type EGFR to IC50 for human PC-9 cells expressing EGFR Del19 mutant by MTT assay
[18] = test system: NCI-H1975; assay: Effect on cell morphology in human NCI-H1975 cells assessed as appearance of blurred boundary region at 1 to 1000 nM incubated for 24 hrs; assay type: functional, cell-based; details: dose 1-1000 nM
[19] = test system: NCI-H1975; assay: Effect on cell morphology in human NCI-H1975 cells assessed as cell shrinkage at 1 to 1000 nM incubated for 24 hrs; assay type: functional, cell-based; details: dose 1-1000 nM
[20] = test system: NCI-H1975; assay: Effect on cell morphology in human NCI-H1975 cells assessed as cell aggregation at 1 to 1000 nM incubated for 24 hrs; assay type: functional, cell-based; details: dose 1-1000 nM
[21] = test system: NCI-H1975; assay: Effect on cell morphology in human NCI-H1975 cells assessed as disappearance of cell morphology at 1 to 1000 nM incubated for 24 hrs; assay type: functional, cell-based; details: dose 1-1000 nM
[22] = test system: NCI-H2228; assay: Effect on cell morphology in human NCI-H2228 cells assessed as increase of cell fragments at 1 to 1000 nM incubated for 24 hrs; assay type: functional, cell-based; details: dose 1-1000 nM
[23] = test system: NCI-H2228; assay: Effect on cell morphology in human NCI-H2228 cells assessed as increase of cell shrinkage at 1 to 1000 nM incubated for 24 hrs; assay type: functional, cell-based; details: dose 1-1000 nM
[24] = test system: NCI-H2228; assay: Effect on cell morphology in human NCI-H2228 cells assessed as increase of cell opacity at 1 to 1000 nM incubated for 24 hrs; assay type: functional, cell-based; details: dose 1-1000 nM
[25] = test system: NCI-H2228; assay: Effect on cell morphology in human NCI-H2228 cells assessed as loss of cell morphology at 1 to 1000 nM incubated for 24 hrs; assay type: functional, cell-based; details: dose 1-1000 nM
[26] = test system: NCI-H2228; assay: Effect on cell morphology in human NCI-H2228 cells assessed as loss of large number of floating cells at 1 to 1000 nM incubated for 24 hrs; assay type: functional, cell-based; details: dose 1-1000 nM
[27] = Selectivity ratio, ratio of IC50 for human NCI-H1975 cells expressing EGFR T790M/ L858R double mutant to IC50 for human EA.hy 926 cells by MTT assay
[28] = Selectivity ratio, ratio of IC50 for human NCI-H1975 cells expressing EGFR T790M/ L858R double mutant to IC50 for human HK-2 cells by MTT assay
[29] = test system: EA.hy 926; assay: Effect on cell morphology in human EA.hy 926 cells at 1 uM incubated for 24 hrs by inverted microscopic analysis; assay type: functional, cell-based
[30] = test system: NCI-H1975; assay: Induction of apoptosis in human NCI-H1975 cells expressing EGFR T790M/ L858R double mutant assessed as increase in DNA breakage measured after 24 hrs by Hoechst 33342 staining based fluorescence microscopic analysis; assay type: functional, cell-based; details: dose 5-25 nM
[31] = test system: NCI-H2228; assay: Induction of apoptosis in human NCI-H2228 cells expressing ALK assessed as increase in DNA breakage measured after 24 hrs by Hoechst 33342 staining based fluorescence microscopic analysis; assay type: functional, cell-based; details: dose 5-25 nM
[32] = test system: NCI-H1975; assay: Inhibition of human NCI-H1975 cell cloning incubated for 24 hrs by inverted microscopic analysis; assay type: functional, cell-based; details: dose 5-25 nM
[33] = test system: NCI-H2228; assay: Inhibition of human NCI-H2228 cell cloning incubated for 24 hrs by inverted microscopic analysis; assay type: functional, cell-based; details: dose 1-20 nM
[34] = test system: NCI-H1975; assay: Antimigratory activity against human NCI-H1975 cells assessed as decrease in healing rate upto 10 nM measured upto 36 hrs by scratch-wound healing assay; assay type: functional, cell-based
[35] = test system: NCI-H1975; assay: Antimigratory activity against human NCI-H1975 cells assessed as reduction in cell migration incubated for 24 hrs by crystal violet staining microscopy based transwell migration assay; assay type: functional; details: dose 10-20 nM

ALK tyrosine kinase receptor, sequence (Q9UM73 whole entry): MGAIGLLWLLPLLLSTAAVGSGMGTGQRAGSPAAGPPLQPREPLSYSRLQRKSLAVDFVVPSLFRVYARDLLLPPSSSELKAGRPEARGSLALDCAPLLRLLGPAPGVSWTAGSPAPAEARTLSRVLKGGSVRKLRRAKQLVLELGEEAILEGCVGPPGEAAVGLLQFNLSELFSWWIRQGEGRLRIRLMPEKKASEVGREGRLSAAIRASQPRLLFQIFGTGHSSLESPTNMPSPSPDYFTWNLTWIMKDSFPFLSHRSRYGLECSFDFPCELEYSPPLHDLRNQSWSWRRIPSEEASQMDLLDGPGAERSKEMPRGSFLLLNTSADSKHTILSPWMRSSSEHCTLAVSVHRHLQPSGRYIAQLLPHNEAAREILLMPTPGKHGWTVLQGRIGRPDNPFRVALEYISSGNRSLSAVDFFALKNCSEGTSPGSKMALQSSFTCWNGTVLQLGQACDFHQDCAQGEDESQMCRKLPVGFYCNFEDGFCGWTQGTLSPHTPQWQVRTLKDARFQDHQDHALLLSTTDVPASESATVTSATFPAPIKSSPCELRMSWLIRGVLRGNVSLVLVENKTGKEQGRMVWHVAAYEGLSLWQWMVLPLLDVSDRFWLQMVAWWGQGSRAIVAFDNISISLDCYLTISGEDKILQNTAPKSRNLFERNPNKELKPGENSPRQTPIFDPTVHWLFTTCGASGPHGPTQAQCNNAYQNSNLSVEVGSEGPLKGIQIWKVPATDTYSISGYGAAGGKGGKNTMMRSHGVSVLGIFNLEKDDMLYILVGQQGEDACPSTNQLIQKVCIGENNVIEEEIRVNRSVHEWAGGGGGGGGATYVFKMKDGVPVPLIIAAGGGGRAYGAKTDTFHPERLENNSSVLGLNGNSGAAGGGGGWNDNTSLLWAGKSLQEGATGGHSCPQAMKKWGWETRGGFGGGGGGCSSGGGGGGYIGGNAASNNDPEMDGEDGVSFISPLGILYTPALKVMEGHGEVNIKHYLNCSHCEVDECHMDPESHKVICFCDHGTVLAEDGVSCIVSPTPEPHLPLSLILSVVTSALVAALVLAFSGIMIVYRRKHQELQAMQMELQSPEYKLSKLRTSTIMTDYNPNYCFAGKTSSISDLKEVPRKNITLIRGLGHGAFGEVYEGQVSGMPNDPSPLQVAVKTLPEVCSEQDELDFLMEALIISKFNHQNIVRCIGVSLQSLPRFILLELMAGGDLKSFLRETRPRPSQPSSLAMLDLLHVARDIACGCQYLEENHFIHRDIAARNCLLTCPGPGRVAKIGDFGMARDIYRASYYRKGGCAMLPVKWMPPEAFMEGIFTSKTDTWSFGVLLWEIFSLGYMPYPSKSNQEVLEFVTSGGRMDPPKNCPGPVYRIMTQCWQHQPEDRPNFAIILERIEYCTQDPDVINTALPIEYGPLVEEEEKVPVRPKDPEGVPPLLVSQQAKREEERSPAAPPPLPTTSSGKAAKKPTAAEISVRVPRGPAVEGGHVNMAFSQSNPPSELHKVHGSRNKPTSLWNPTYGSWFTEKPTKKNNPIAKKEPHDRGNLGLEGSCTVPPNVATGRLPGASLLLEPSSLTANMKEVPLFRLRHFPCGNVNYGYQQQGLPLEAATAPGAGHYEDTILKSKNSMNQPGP
Epidermal growth factor receptor (Homo sapiens, UniProt P00533, L858R/T790M), sequence (P00533 25-1210 T790M/L858R limits assumed): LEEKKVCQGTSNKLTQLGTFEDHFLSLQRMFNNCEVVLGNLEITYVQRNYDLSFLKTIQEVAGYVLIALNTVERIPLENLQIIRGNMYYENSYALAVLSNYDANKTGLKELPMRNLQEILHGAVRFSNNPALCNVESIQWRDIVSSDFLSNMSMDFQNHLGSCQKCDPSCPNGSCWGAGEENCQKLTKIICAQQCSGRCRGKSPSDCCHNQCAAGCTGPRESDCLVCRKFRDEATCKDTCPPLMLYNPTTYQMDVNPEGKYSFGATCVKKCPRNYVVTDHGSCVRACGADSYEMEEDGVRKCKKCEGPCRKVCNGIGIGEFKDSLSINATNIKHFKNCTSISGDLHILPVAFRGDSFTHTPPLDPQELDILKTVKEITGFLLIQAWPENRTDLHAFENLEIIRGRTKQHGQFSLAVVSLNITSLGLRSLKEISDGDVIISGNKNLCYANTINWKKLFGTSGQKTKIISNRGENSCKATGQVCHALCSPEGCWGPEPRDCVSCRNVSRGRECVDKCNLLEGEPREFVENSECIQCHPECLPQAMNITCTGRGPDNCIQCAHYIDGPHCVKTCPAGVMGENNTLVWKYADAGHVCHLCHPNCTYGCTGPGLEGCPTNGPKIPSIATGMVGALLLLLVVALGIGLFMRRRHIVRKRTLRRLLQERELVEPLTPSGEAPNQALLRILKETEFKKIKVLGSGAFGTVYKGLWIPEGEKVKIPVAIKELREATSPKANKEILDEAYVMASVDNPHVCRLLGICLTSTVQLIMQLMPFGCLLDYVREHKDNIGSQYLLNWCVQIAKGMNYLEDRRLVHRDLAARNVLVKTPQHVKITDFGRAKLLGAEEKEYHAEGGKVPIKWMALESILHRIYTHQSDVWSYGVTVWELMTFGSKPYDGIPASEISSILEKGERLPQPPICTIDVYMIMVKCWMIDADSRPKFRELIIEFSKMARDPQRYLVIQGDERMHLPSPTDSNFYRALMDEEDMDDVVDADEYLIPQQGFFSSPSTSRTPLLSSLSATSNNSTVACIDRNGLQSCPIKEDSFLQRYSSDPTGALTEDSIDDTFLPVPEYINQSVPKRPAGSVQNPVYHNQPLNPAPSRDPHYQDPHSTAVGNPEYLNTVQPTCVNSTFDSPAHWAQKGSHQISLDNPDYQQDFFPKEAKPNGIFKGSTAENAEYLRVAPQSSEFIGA
Epidermal growth factor receptor (Homo sapiens, UniProt P00533), sequence (P00533 whole entry): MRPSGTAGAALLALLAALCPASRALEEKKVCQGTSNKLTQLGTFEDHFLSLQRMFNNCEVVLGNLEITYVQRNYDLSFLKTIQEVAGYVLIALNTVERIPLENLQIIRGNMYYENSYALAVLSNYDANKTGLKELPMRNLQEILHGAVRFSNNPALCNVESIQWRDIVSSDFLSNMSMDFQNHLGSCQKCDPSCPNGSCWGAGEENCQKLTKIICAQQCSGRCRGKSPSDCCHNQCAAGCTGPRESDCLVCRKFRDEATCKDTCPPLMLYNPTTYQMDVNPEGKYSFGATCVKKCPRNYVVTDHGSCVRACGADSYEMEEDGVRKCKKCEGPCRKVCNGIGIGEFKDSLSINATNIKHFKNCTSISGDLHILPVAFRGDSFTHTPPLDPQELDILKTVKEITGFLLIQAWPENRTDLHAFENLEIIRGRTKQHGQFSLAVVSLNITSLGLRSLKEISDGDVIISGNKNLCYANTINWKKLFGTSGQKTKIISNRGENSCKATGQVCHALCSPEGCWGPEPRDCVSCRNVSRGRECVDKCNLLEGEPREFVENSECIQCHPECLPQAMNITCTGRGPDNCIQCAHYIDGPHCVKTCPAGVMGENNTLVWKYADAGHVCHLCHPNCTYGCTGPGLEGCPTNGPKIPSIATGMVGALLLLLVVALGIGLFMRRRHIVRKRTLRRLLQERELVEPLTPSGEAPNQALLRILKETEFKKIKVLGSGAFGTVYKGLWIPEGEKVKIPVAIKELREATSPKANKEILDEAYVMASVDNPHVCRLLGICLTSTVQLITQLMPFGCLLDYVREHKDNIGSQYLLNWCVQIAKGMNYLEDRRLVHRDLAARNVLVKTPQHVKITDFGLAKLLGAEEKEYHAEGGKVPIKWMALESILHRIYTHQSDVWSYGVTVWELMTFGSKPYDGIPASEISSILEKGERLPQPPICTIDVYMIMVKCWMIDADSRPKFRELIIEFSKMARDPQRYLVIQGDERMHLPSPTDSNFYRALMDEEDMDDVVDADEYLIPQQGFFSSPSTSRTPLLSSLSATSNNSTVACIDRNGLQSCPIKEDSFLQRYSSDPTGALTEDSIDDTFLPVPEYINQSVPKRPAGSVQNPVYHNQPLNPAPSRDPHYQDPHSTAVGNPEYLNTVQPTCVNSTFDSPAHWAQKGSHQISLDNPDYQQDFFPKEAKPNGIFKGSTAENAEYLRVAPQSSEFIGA

SMILES: COCCOc1cc2ncnc(N(C)c3ccccc3S(=O)(=O)N(C)C)c2cc1OCCOC
- IC50 [1]: > 10000 nM
- IC50 [2]: > 10000 nM

SMILES: CNS(=O)(=O)c1ccccc1Nc1ncnc2cc(OCCOC)c(OCCOC)cc12
- IC50 [1]: > 10000 nM
- IC50 [2]: > 10000 nM

SMILES: C=CC(=O)Nc1cc(Nc2ncc(Cl)c(Nc3ccccc3S(=O)(=O)N(C)C3CC3)n2)c(OC)cc1N(C)CCN(C)C
- IC50 [1]: 100 nM
- IC50 [2]: 24.5 nM

SMILES: COCCOc1cc2ncnc(Nc3ccccc3S(=O)(=O)N3CCCC3)c2cc1OCCOC
- IC50 [1]: > 10000 nM
- IC50 [2]: > 10000 nM

SMILES: C=CC(=O)Nc1cc(Nc2nccc(-c3cn(C)c4ccccc34)n2)c(OC)cc1N(C)CCN(C)C [OSIMERTINIB]
- IC50 [3]: 1560 nM
- IC50 [5]: 1160 nM
- IC50 [6]: 2400 nM
- Activity [7]: inactive

SMILES: C=CC(=O)Nc1cc(Nc2ncc(Cl)c(Nc3ccccc3S(=O)(=O)N3CCCC3)n2)c(OC)cc1N(C)CCN(C)C
- IC50 [1]: 13.6 nM
- IC50 [2]: 14 nM

SMILES: Cc1cc(N(C)CCN(C)C)ccc1Nc1ncc(Cl)c(Nc2ccccc2S(=O)(=O)N(C)C)n1
- IC50 [1]: 170 nM
- IC50 [2]: 55.5 nM

SMILES: C=CC(=O)Nc1cc(Nc2ncc(F)c(Nc3ccccc3S(=O)(=O)N3CCCC3)n2)c(OC)cc1N(C)CCN(C)C
- IC50 [1]: 81 nM
- IC50 [2]: 19 nM

SMILES: Cc1cc(Nc2ncc(Cl)c(Nc3ccccc3S(=O)(=O)C(C)C)n2)c(OC(C)C)cc1C1CCNCC1 [CERITINIB]
- IC50 [5]: 1010 nM
- IC50 [6]: 2510 nM
- Ratio IC50 [8]: 228.36
- Ratio IC50 [9]: 77.69

SMILES: CN(C)CCN(C)c1ccc(Nc2ncc(Cl)c(Nc3ccccc3S(=O)(=O)N(C)C)n2)cc1
- IC50 [1]: 61 nM
- IC50 [2]: 108 nM

SMILES: C=CC(=O)Nc1cc(Nc2ncc(F)c(Nc3ccccc3S(=O)(=O)N(C)C)n2)c(OC)cc1N(C)CCN(C)C
- IC50 [1]: 67 nM
- IC50 [2]: 45 nM

SMILES: C=CC(=O)Nc1cc(Nc2ncc(Cl)c(Nc3ccccc3S(=O)(=O)N(C)C)n2)c(OC)cc1N(C)CCN(C)C
- IC50 [1]: 12.5 nM
- IC50 [2]: 18 nM

SMILES: CNC(=O)c1ccccc1Nc1ncnc2cc(OCCOC)c(OCCOC)cc12
- IC50 [1]: > 10000 nM
- IC50 [2]: > 10000 nM

SMILES: COCCOc1cc2ncnc(Nc3ccccc3S(=O)(=O)NC3CC3)c2cc1OCCOC
- IC50 [1]: > 10000 nM
- IC50 [2]: > 10000 nM

SMILES: C=CC(=O)Nc1cc(Nc2ncc(Cl)c(Nc3ccccc3S(=O)(=O)NC3CC3)n2)c(OC)cc1N(C)CCN(C)C
- IC50 [1]: 21.5 nM
- IC50 [2]: 11 nM
- IC50 [10]: 3.31 nM
- Ratio IC50 [11]: 77.25
- IC50 [12]: 1.08 nM
- IC50 [13]: 23.2 nM
- IC50 [14]: 0.72 nM
- Ratio IC50 [15]: 21.5
- Ratio IC50 [16]: 32.3
- IC50 [3]: 1540 nM
- IC50 [4]: 20 nM
- Ratio IC50 [17]: 71.86
- Activity [18]: Active
- Activity [19]: Active
- Activity [20]: Active
- Activity [21]: Active
- Activity [22]: Active
- Activity [23]: Active
- Activity [24]: Active
- Activity [25]: Active
- Activity [26]: Active
- IC50 [5]: 1610 nM
- IC50 [6]: 3300 nM
- Ratio IC50 [27]: 74.83
- Ratio IC50 [8]: 146.27
- Ratio IC50 [28]: 157.28
- Ratio IC50 [9]: 300.27
- Activity [29]: Active
- Activity [7]: Active
- Activity [30]: Dose-Dependent Effect
- Activity [31]: Dose-Dependent Effect
- inhibition [32]: Active
- inhibition [33]: Active
- Activity [34]: Active
- Activity [35]: Dose-Dependent Effect

SMILES: CCN(CC)S(=O)(=O)c1ccccc1Nc1ncnc2cc(OCCOC)c(OCCOC)cc12
- IC50 [1]: > 10000 nM
- IC50 [2]: > 10000 nM

SMILES: COc1cc(N(C)CCN(C)C)c(NC(=O)CCl)cc1Nc1ncc(Cl)c(Nc2ccccc2S(=O)(=O)N(C)C)n1
- IC50 [1]: 1030 nM
- IC50 [2]: 104 nM

SMILES: COCCOc1cc2ncnc(Nc3ccccc3S(=O)(=O)N(C)C)c2cc1OCCOC
- IC50 [1]: > 10000 nM
- IC50 [2]: > 10000 nM
